# Test results reported in patent US4879381A, “7-(substituted or unsubstituted amino) 3-substituted methyl-^3 cephem-4-carboxylic acid” (Toyoma Chemical Company, Ltd., priority 1980, dated 1989).
# Structures can show the parent of a compound that is named as a salt. Where two headings read alike, the source gives them in different places.
# Key:
# Assay type in all cases: cell-based
# E. coli NIHJ = test: Antibacterial activity (MIC, agar plate, standard method of the Japanese Chemotherapeutic Society); details: 10^4 cells/plate, 37° C., 20 hours
# Method: (§1) According to the standard method of the Japanese Chemotherapeutic Society [Chemotherapy, Vol. 23, Pages 1-2 (1975)], a culture obtained by cultivating bacteria in Heart Infusion broth (manufactured by Eken Kagakusha) at 37° C. for 20 hours was inoculated into a Heart Infusion agar medium (manufactured by Eiken Kagakusha) and cultivated at 37° C. for 20 hours, after which the growth of bacteria was examined visually. The minimum inhibitory concentration at which the bacterial growth was inhibited was taken as MIC (μg/ml). The amount of the inoculated bacteria was 10^4 cells/plate (10^6 cells/ml).
# Aci. calcoaceticus A-6 = test: Antibacterial activity (MIC, agar plate); details: Acinetobacter calcoaceticus, A6, 10^4 cells/plate, 37° C., 20 hours, read-out: MIC
# Method: as §1
# Al. faecalis B-1 = test: Antibacterial activity (MIC, agar plate); details: Alcaligenes faecalis, B1; Al. faecalis B-1; 10^4 cells/plate, 37° C., 20 hours; read-out: MIC
# Method: as §1
# [1] = test system: E. coli TK3 (Penicillinase-producing bacteria); test: Antibacterial activity (MIC, agar plate)
# Method: as §1
# Ent. cloacae IID977 = test: Antibacterial activity (MIC, agar plate); details: Enterobacter cloacae, 10^4 cells/plate, 37° C., 20 hours, read-out: MIC
# Method: as §1
# Kl. pneumoniae Y-41 = test: Antibacterial activity (MIC, agar plate)
# Method: as §1
# Kl. pneumoniae Y-50 = test: Antibacterial activity (MIC, agar plate); details: 37° C., 20 hours
# Method: as §1
# Pro. mirabilis T-111 = test: Antibacterial activity (MIC, agar plate)
# Method: as §1
# Pro. morganii T-216 = test: Antibacterial activity (MIC, agar plate); details: Morganella morganii, T216, 20 h
# Method: as §1
# [2] = test system: Pro. vulgaris GN76 (Cephalosporinase-producing bacteria); test: Antibacterial activity (MIC, agar plate); details: Proteus vulgaris; Pro. vulgaris GN76 (cephalosporinase-producing); 10^4 cells/plate, 37° C., 20 hours; read-out: MIC
# Method: as §1
# Ser. marcescens IID620 = test: Antibacterial activity (MIC, agar plate); details: Serratia marcescens, IID620, 20 h
# Method: as §1
# Pro. mirabilis T-100 = test: Antibacterial activity (MIC, agar plate); details: 37° C., 20 hours
# Method: as §1
# [3] = Escherichia coli, read-out: MIC
# [4] = Klebsiella pneumoniae, Y41, Kl. pneumoniae Y-41, 10^4 cells/plate, 37° C., 20 hours, read-out: MIC
# [5] = Klebsiella pneumoniae, Y50, 10^4 cells/plate, read-out: MIC
# [6] = Klebsiella pneumoniae, Y41, 20 h
# [7] = Proteus mirabilis, T100, 10^4 cells/plate, read-out: MIC
Compound,MIC (E. coli NIHJ; [3]) [µg/mL],"MIC ([1]; Escherichia coli, 20 h) [µg/mL]",MIC (Kl. pneumoniae Y-41; [4]) [µg/mL],MIC (Kl. pneumoniae Y-50; [5]) [µg/mL],"MIC (Pro. mirabilis T-111; Proteus mirabilis, T111, 20 h) [µg/mL]",MIC (Pro. mirabilis T-100; [7]) [µg/mL],also measured
"CO/N=C(\C(=O)NC1C(=O)N2C(C(=O)O)=C(Cn3nnc(N)n3)CSC12)c1csc(N)n1 (stereo not drawn) [H, Trifluoroacetic acid salt of 7-[2-(2-aminothiazol-4-yl)-2-(syn)-methoxyiminoacetamido]-3-[2-(5-amino-1,2,3,4-tetrazolyl)methyl]-Δ^3-cephem-4-carboxylic acid]",≤ 0.1,0.78,0.39,0.2,0.39,,MIC (Aci. calcoaceticus A-6): 25 µg/mL; MIC (Al. faecalis B-1): 12.5 µg/mL; MIC (Ent. cloacae IID977): 12.5 µg/mL; MIC (Pro. morganii T-216): 0.78 µg/mL; MIC [2]: 1.56 µg/mL; MIC (Ser. marcescens IID620): 0.78 µg/mL
"CO/N=C(\C(=O)NC1C(=O)N2C(C(=O)O)=C(Cn3nnc(NC(C)=O)n3)CSC12)c1csc(N)n1 (stereo not drawn) [I, Trifluoroacetic acid salt of 7-[2-(2-aminothiazol-4-yl)-2-(syn)-methoxyiminoacetamido]-3-[2-(5-acetamido-1,2,3,4-tetrazolyl)methyl]-Δ^3-cephem-4-carboxylic acid]",≤ 0.1,0.39,,≤ 0.1,≤ 0.1,≤ 0.1,MIC (Kl. pneumoniae Y-41; [6]): 0.2 µg/mL
"CO/N=C(\C(=O)NC1C(=O)N2C(C(=O)O)=C(Cn3nnc(C)n3)CSC12)c1csc(N)n1 (stereo not drawn) [J, Trifluoroacetic acid salt of 7-[2-(2-aminothiazol-4-yl)-2-(syn)-methoxyiminoacetamido]-3-[2-(5-methyl-1,2,3,4-tetrazolyl)methyl]-Δ^3-cephem-4-carboxylic acid]",≤ 0.1,0.39,,≤ 0.1,,≤ 0.1,"MIC (Kl. pneumoniae Y-41; [6]): ≤ 0.39 µg/mL; MIC (Pro. mirabilis T-111; Proteus mirabilis, T111, Pro. mirabilis T-111, 10^4 cells/plate, 37° C., 20 hours, read-out: MIC): 0.2 µg/mL"
"CCc1nnn(CC2=C(C(=O)O)N3C(=O)C(NC(=O)/C(=N\OC)c4csc(N)n4)C3SC2)n1 (stereo not drawn) [K, Trifluoroacetic acid salt of 7-[2-(2-aminothiazol-4-yl)-2-(syn)-methoxyiminoacetamido]-3-[2-(5-ethyl-1,2,3,4-tetrazolyl)methyl]-Δ^3-cephem-4-carboxylic acid]",≤ 0.1,0.39,0.78,0.2,0.78,≤ 0.1,
"CO/N=C(\C(=O)NC1C(=O)N2C(C(=O)O)=C(Cn3cnc(Cl)n3)CS[C@H]12)c1csc(N)n1.O=C(O)C(F)(F)F (stereo partly drawn) [L, Trifluoroacetic acid salt of 7-[2-(2-aminothiazol-4-yl)-2-(syn)-methoxyiminoacetamido]-3-[(3-chloro-1,2,4-triazolyl)methyl]-Δ^3-cephem-4-carboxylic acid]",,,,,,,"MIC (E. coli NIHJ): ≤ 0.1 µg/mL; MIC ([1]; E. coli TK3 (penicillinase-producing), 10^4 cells/plate, 37° C., 20 hours): 0.39 µg/mL; MIC (Kl. pneumoniae Y-41; Kl. pneumoniae Y-41, 10^4 cells/plate, 37° C., 20 hours): 0.39 µg/mL; MIC (Kl. pneumoniae Y-50; 10^4 cells/plate): ≤ 0.1 µg/mL; MIC (Pro. mirabilis T-100; 10^4 cells/plate): ≤ 0.1 µg/mL; MIC (Pro. mirabilis T-111; Pro. mirabilis T-111, 10^4 cells/plate, 37° C., 20 hours): 0.78 µg/mL"
"CC(=O)Nc1nnn(CC2=C(C(=O)O)N3C(=O)C(NC(=O)Cc4csc(N)n4)C3SC2)n1 (centres unmarked) [M, Trifluoroacetic acid salt of 7-[2-(2-aminothiazol-4-yl)acetamido]-3-[2-(5-acetamido-1,2,3,4-tetrazolyl)methyl]-Δ^3-cephem-4-carboxylic acid]",0.39,1.56,0.78,0.78,0.78,0.39,
"Nc1nc(CC(=O)NC2C(=O)N3C(C(=O)O)=C(Cn4ncnn4)CSC23)cs1 (centres unmarked) [N, Trifluoroacetic acid salt of 7-[2-(2-aminothiazol-4-yl)acetamido]-3-[2-(1,2,3,4-tetrazolyl)methyl]-Δ^3-cephem-4-carboxylic acid]",0.39,1.56,0.78,0.39,0.78,0.39,
